A melting point compilation (Tetko et al.; mined from patent text by program, amines drawn as free bases though some values may be those of a salt)

CC(C)(C)N1CN(Cc2ccccc2)C(N)=C2C=NN=C21 showed a melting point of 138 to 140 °C.
With CCOC(=O)C(=CNc1ccc2nc(C)n(C)c2n1)C(=O)OCC the melting point was 128 to 130 °C.
Work on CCOC(=O)c1cc2ccc(C#N)cc2[nH]1 yielded a melting point of 176 °C.
In the case of CN(C)S(=O)(=O)c1ccc2c(c1)CC(N1CCN(CCN3CCOC3=O)CC1)c1ccccc1S2 (stereo not drawn), the melting point is reported as 164 to 165 °C.
Cc1cc(SC2=C(O)CC(CCc3ccc(N)cc3)(CCc3ccc(N)cc3)OC2=O)c(C(C)(C)C)cc1CO showed a melting point of 144 to 146 °C.
For O=C(O)CNc1nccc(-n2cc(C3c4ccccc4C=Cc4ccccc43)c(=S)[nH]c2=O)n1, the melting point was 208 °C.
With CC1CCC(C)N1CCNc1ccnc2cc(Cl)ccc12 (stereo not drawn) the melting point was 127 to 130 °C.
With CC12CCC(C(=O)O)=CC1=CCC1C2CCC2(C)C(C(=O)CCc3ccccc3)CCC12 (stereo not drawn) the melting point was 218 to 220 °C.
For CC(C)N(C)S(=O)(=O)NC(=O)c1ccc(F)c([N+](=O)[O-])c1, the melting point was 164 to 165 °C.
In the case of CNC(=O)NC(=O)N1CCN(c2ccccc2)CC1, the melting point is reported as 198 to 200 °C.
O=c1oc(=O)n(Cc2ccco2)c2ccccc12 gave a melting point of 131 to 133 °C.
Work on CC(C)n1nc(-c2c(F)nc(N)nc2-c2ccccc2)ccc1=O yielded a melting point of 231 to 232 °C.
Work on CC(Nc1ccc([N+](=O)[O-])cc1)c1ccccc1 (stereo not drawn) yielded a melting point of 95 to 96 °C.
With O=C(CN1CCN(c2ccc(F)cc2)CC1)CN1CCN(c2ccc(F)cc2)CC1 the melting point was 106 to 107 °C.
Cc1cc(-n2cncn2)c2cccc(OCc3c(Cl)ccc(S(=O)(=O)N4CCC[C@H]4C(=O)NCC4CCN(CCCO)CC4)c3Cl)c2n1 showed a melting point of 136 °C.
In the case of N#CCCCCCCCCNS(=O)(=O)c1cccc(Cl)c1, the melting point is reported as 42 to 43 °C.
CS(=O)(=O)Oc1cc(OS(C)(=O)=O)cc(OS(C)(=O)=O)c1 showed a melting point of 145 to 149 °C.
For CNC(=O)Oc1cc(C)c(NC(=O)C(F)(F)Cl)cc1C, the melting point was 187 to 188 °C.
CC(C=Cc1cccc(-c2cc3c(cc2C)C(C)(C)CCC3(C)C)c1)=CC(=O)O gave a melting point of 99 to 101 °C.
In the case of CCOC(=O)C(=NOC(C)(C)C(=O)OC(C)(C)C)c1csc(NC(c2ccccc2)(c2ccccc2)c2ccccc2)n1, the melting point is reported as 124 to 125 °C.
With CSC(C)(C)C(NS(=O)(=O)c1ccc(Oc2ccccc2)cc1)C(=O)O (stereo not drawn) the melting point was 156 to 158 °C.
For CCCC[C@H](NC(=O)[C@H](CC(C)C)NC(=O)c1c(F)cccc1F)C(=O)CSCc1ccco1, the melting point was 116 °C.
In the case of CCC1CCCCN1C(=O)C=Cc1c(-c2cccc(NC(=O)OC)c2)nn2ccccc12 (stereo not drawn), the melting point is reported as 143 to 145 °C.
With COc1ccccc1N1CCN(CCCCCS(=O)(=O)c2cccc3c(=O)c(C)c(-c4ccccc4)oc23)CC1 the melting point was 120 to 123 °C.
For CN1CCN(c2cc(C(=O)Nc3ccc4c(c3)-c3c(c(C(N)=O)nn3-c3ccc5c(c3)OCO5)CC4)c(Cl)cn2)CC1, the melting point was 305 to 307 °C.
With CN1C(=O)CON(C(=O)OCc2ccccc2)C1c1ccccc1 (stereo not drawn) the melting point was 82 to 83 °C.
CCC(=O)NCCC1CCc2c(F)cc3nn(C)cc3c21 (stereo not drawn) showed a melting point of 117 to 119 °C.
With CCn1cc(C(=O)O)c(=O)c2cc(F)c(N3CCN(C)C(c4cc5cc(Cl)ccc5o4)C3)cc21 (stereo not drawn) the melting point was 248 to 249 °C.
For CC(C)(C)OC(=O)N[C@@H](COS(C)(=O)=O)Cc1ccccc1, the melting point was 119 to 120 °C.
For O=C(O)C(Cc1ccccc1)Oc1ccc(-c2ccc(-c3c(Cc4ccccc4)oc4ccccc34)cc2)cc1 (stereo not drawn), the melting point was 164 to 166 °C.
Work on COC(=O)C1=NNC(C)=C(C(=O)OC)C1c1ccccc1C(F)(F)F (stereo not drawn) yielded a melting point of 205 °C.
Compound Cn1nnc(-c2ccc(C=Cc3ccc(-c4nc5ccccc5o4)cc3)cc2)c1C#N has a melting point of 264 to 266 °C.
Work on Cc1cccc(Nc2cc(Nc3cccc(OCC(O)CN(C)C)c3)ncn2)c1 (stereo not drawn) yielded a melting point of 120 to 122 °C.
In the case of C1CNCCSCCNCCN1, the melting point is reported as 51 to 54 °C.
CC(=O)NCCCc1c[nH]c(-c2ccc(F)cc2)c1-c1ccncc1 showed a melting point of 218 to 220 °C.
Work on Cc1nc(-c2ccc(CN3C(=O)C4(COc5cc6c(cc54)CCO6)c4ccccc43)cc2)no1 (stereo not drawn) yielded a melting point of 185 to 186 °C.
Cc1nccn1NCc1cc(C(C)(C)C)c(O)c(C(C)(C)C)c1 showed a melting point of 181 to 182 °C.
Compound Cc1c(Cc2ccc(C(C)C)cc2)c2c(c(C)c1NC(=O)CC(C)(C)C)C(N1CCCC1)C(C)(C)O2 (stereo not drawn) has a melting point of 179 to 180 °C.
Compound CC(C)(C)OC(=O)/C(=C/c1ccccc1Cl)C(=O)c1ccccc1O has a melting point of 75 to 78 °C.
Compound CC(=O)Oc1cc(C(C)=O)cc(C#N)c1OC(C)=O has a melting point of 76 to 79 °C.
Compound CN(C(=O)c1ccccc1C(c1ccc(O)cc1)c1ccc(O)cc1)c1ccccc1 has a melting point of 246 to 247 °C.
Compound O=C1CCc2cc(OCc3ccccc3)ccc21 has a melting point of 105 to 106 °C.
O=C(O)[C@@H]1C[C@H]1/C=C\c1ccc(-c2nc3ccccc3o2)cc1 (relative stereo) showed a melting point of 171 to 172 °C.
For Cn1cc(-c2cc3cccnc3[nH]2)c2cc(OCCCO)ccc21, the melting point was 192 to 193 °C.
With Cc1cc(CCCCCCCOc2ccc(C3=N[C@@H](C(C)C)CO3)cc2)on1 the melting point was 122 to 123 °C.
For O=C(Cc1ccccc1Nc1c(Cl)cccc1Cl)OCCOCCO[N+](=O)[O-], the melting point was 73 °C.
Compound N#Cc1cnc2cnc(Cl)cc2c1Nc1cccc(Br)c1 has a melting point of 220 to 223 °C.
O=C(O)c1ccc(C(=O)c2cccnc2)cc1 gave a melting point of 266 to 267 °C.
